Results as given in US5700640A, “Inducers of gamma globin gene expression and screening assays therefor” (priority 1994, dated 1997).

What was measured:
[1] = system: BA-induced reporter gene expression in gamma3'PE K562 cells; assay: effect of extracellular KCl on BA-induced reporter gene activity; assay type: cell-based, human
Procedure: Valinomycin is a potassium ionophore known to cause depolarization of the K^+ gradient existing across cell membranes. To determine whether the effect of valinomycin indicated a requirement for a K^+ gradient for uptake of BA, gamma3'PE reporter cells were incubated in the presence of culture medium supplemented with increasing concentrations of KCl. Thus, as opposed to valinomycin, this treatment extinguishes the existing K^+ gradient from the external side of the membrane without affecting internal K^+ concentrations. Cells cultured in increasing concentrations on KCl were treated for 5 hours with BA and then harvested and assayed for luciferase activity. The results are shown in FIG. 10, wherein the bars indicate the level of reporter gene activity after induction in the presence of the indicated concentration of KCl and the asterisks indicate basal (uninduced) levels of reporter gene activity in replicate cultures.

[2] = system: gamma globin-regulated luciferase mRNA; assay: cells; assay type: cell-based, human
Procedure: Total RNA was prepared by the method of McDonald as described in Sambrook et al., (1989) Molecular Cloning: A Laboratory Manual, 2nd Edition, Cold Spring Harbor Laboratory Press. 10 μg total cellular RNA was electrophoresed through agarose gels containing 3.3% formaldehyde. The electrophoresed RNA was then transferred to nitrocellulose filters by standard methods. Each sample was hybridized to specific probes for gamma globin mRNA, mRNA encoding the erythroid specific transcription factor GATA-1 and 28S ribosomal RNA (which was used for standardization). The gamma globin and GATA-1 probes were cDNA probes, which were labeled with ^32 p by random priming reactions (Promega Biotech Inc.). The 28S ribosomal RNA probe was an oligonucleotide having the sequence 5' […] 3' (SEQ ID NO: 3), which was labeled by 5' end labeling using T4 polynucleotide kinase (New England Biolabs). Nucleotide probes were hybridized to the RNA nitrocellulose filters according to standard techniques. After hybridization, radioactive signals on the nitrocellulose filters were directly quantified using a BioRad GS-250 Molecular Imager. mRNA hybridization intensities were normalized to the amount of 28S ribosomal RNA present for each sample. The results are summarized below in Table 1:
To determine if BA exerts its inductive effects by acting directly on pre-existing proteins in the cells, the effect of the protein synthesis inhibitor cycloheximide (CHX) on BA-induced expression of RNA was analyzed. In these experiments, gamma3'PE cells were incubated with 150 μg/ml CHX for 2 hr prior to addition of BA (5 mM). Control cells were incubated with either CHX or BA alone or were mock incubated. Cells were harvested 5 hr later for preparation of total RNA. RNA samples were electrophoresed, transferred to nitrocellulose and hybridized to a ^32 P-labeled luciferase cDNA probe as described in Example 4. The radioactive signals on the filter were quantitated using a BioRad GS-250 Molecular Imager and mRNA levels were normalized to values obtained for mock treated samples. […]

GATA-1 mRNA = GATA-1 mRNA level (Northern) with BA and/or cycloheximide in gamma3'PE cells; assay type: cell-based, human
Procedure: To determine if BA exerts its inductive effects by acting directly on pre-existing proteins in the cells, the effect of the protein synthesis inhibitor cycloheximide (CHX) on BA-induced expression of RNA was analyzed. In these experiments, gamma3'PE cells were incubated with 150 μg/ml CHX for 2 hr prior to addition of BA (5 mM). Control cells were incubated with either CHX or BA alone or were mock incubated. Cells were harvested 5 hr later for preparation of total RNA. RNA samples were electrophoresed, transferred to nitrocellulose and hybridized to a ^32 P-labeled luciferase cDNA probe as described in Example 4. The radioactive signals on the filter were quantitated using a BioRad GS-250 Molecular Imager and mRNA levels were normalized to values obtained for mock treated samples. The results are presented graphically in FIG. 12, Panel A. BA treatment alone increased gamma globin-regulated luciferase mRNA by approximately 6 fold.
The results, normalized to mock treated samples, are depicted graphically in FIG. 12, Panel B. In contrast to luciferase mRNA which was induced by BA treatment, the level of GATA-1 RNA decreases about 3 fold in response to BA treatment.

[3] = system: gamma globin reporter gene activity in gamma3'PE K562 cells (protein kinase C inhibition); assay: effect of the pKC inhibitor hypericin on basal and BA-induced reporter gene activity; assay type: cell-based, human; conditions: 10 mM hypericin, 1 hour before 5 mM BA for 24 hours
Procedure: Consistent with the results using the pKC activator (-) indolactam V are the results of experiments utilizing the pKC inhibitor hypericin. In these experiments, cells were incubated in the presence or absence of hypericin (10 mM; LC Laboratories) for one hour prior to treatment with 5 mMBA for 24 hours, followed by harvesting of the cells and assaying of luciferase activity.

K562 cells = assay: trypan blue exclusion; assay type: cell-based, human
[4] = system: 14C BA transport into K562 cells; assay: 14C butyric acid incorporation into gamma3'PE-transfected K562 cells; assay type: cell-based, human; conditions: valinomycin 10 μM, 1 hour preincubation; 50 μM 14C BA
Procedure: To directly examine whether transport of BA into erythroid cells required an intact K+ gradient, the incorporation of ^14 C BA into gamma3'PE-transfected K562 cells was assayed in the presence and absence of 10 μM valinomycin. Cells were incubated with 10 μM valinomycin for 1 hour prior to addition of ^14 C butyric acid (obtained commercially from Dupont/New England Nuclear) to a final concentration of 50 μM. At various times after addition of ^14 C BA, cells were harvested by vacuum filtration through a GF/C filter (Whatman) and washed with a total of 5 ml of RPMI culture media. Radioactivity associated with the cells was quantified directly by liquid scintillation counting of the filter. The results, shown in FIG. 11, indicate that the rate of ^14 C BA incorporation into the cells is inhibited nearly three fold by the addition of valinomycin. Although cells treated with valinomycin did accumulate some ^14 C BA, it is not clear whether this was actually internalized or bound to the surface of the cell. Neutralization of the potassium gradient could be expected to selectively prevent internalization but not binding of radioligand. […] Accordingly, the results described herein are consistent with an erythroid-specific transport mechanism for uptake of BA that is dependent upon an intact K^+ gradient across the cell membrane.

[5] = system: BA-mediated induction of luciferase activity in gamma3'PE K562 cells; assay: effect of transport inhibitors on BA-induced reporter gene activity in gamma3'PE K562 cells; assay type: cell-based, human
Procedure: To characterize uptake of butyric acid by erythroid cells, K562 cells stably transfected with gamma3'PE were treated with BA in the presence of various transport inhibitors. […] Cells were maintained in the continuous presence of both BA and the inhibitor for 24 hours and then luciferase activity in the cells was measured.

BA uptake by colonocytes = conditions: Mascolo et al. 1991; cited from earlier work

## [Cl-].[K+] [KCl]
[1]; K+ above approximately 200 mM
  basal level globin expression at higher K+ concentrations: a reduction in basal level globin expression was observed at higher K^+ concentrations
[1]; KCl in medium, BA 5 hours
  external K+ concentration inhibiting BA-induced reporter gene expression: approximately 200 mM
[1]; approximately 200 mM KCl
  effect on basal level gene expression: basal level gene expression was not affected

## C[C@@H]1C[C@@H]([C@H](O)CC2CC(=O)NC(=O)C2)C(=O)[C@@H](C)C1 [cycloheximide]
[2]; 150 μg/ml CHX alone
  effect of cycloheximide alone on luciferase mRNA: significant increase in gamma globin-regulated luciferase mRNA, albeit to a lower level than that observed with BA
[2]; CHX 150 μg/ml 2 hr before BA 5 mM
  effect of cycloheximide on BA-mediated induction of luciferase mRNA: failed to block BA-mediated induction of luciferase mRNA
GATA-1 mRNA; 150 μg/ml CHX alone
  effect of cycloheximide alone on GATA-1 mRNA level: insensitive to cycloheximide treatment alone
GATA-1 mRNA; CHX 150 μg/ml plus BA 5 mM
  effect of cycloheximide on BA induced decrease in GATA-1 mRNA level: sensitive to cycloheximide treatment

## Cc1cc(O)c2c(=O)c3c(O)cc(O)c4c5c(O)cc(O)c6c(=O)c7c(O)cc(C)c8c1c2c(c34)c(c78)c65 [hypericin]
[3]
  effect on basal level and BA induced globin gene expression: significant reduction in both basal level and BA induced globin gene expression

## CC(C)[C@@H]1NC(=O)[C@H](C)OC(=O)[C@@H](C(C)C)NC(=O)[C@@H](C(C)C)OC(=O)[C@H](C(C)C)NC(=O)[C@H](C)OC(=O)[C@@H](C(C)C)NC(=O)[C@@H](C(C)C)OC(=O)[C@H](C(C)C)NC(=O)[C@H](C)OC(=O)[C@@H](C(C)C)NC(=O)[C@@H](C(C)C)OC1=O [valinomycin]
K562 cells
  non-specific toxic effect: did not result from a non-specific toxic effect
[4]
  inhibition of rate of 14C BA incorporation: three
[5]; valinomycin 10 μM, 24 hours
  reduction in BA-mediated globin gene induction: 4 fold
[5]; valinomycin, no BA
  effect on basal level globin gene expression: did not affect basal level globin gene expression
BA uptake by colonocytes
  effect on BA uptake by colonocytes: not inhibited by valinomycin
